Measurements published in patent US12655113B2, “Biphenyl compounds as SOCE modulators, compositions and uses thereof” (Università degli Studi del Piemonte Orientale “Amedeo …, priority 2020, dated 2026).

Experiments:
[1] = tested on: tBHQ-induced calcium influx into Hek cells (SOCE); assay: Store-operated calcium entry (SOCE) by Fura-2 Ca2+ measurements in Hek cells; assay type: cell-based, Human
[2] = Cytotoxicity, residual cell viability after 24 hours; assay type: cell-based; conditions: 10 μM
[3] = molecular target: ICRAC (Homo sapiens, UniProt Q96D31); conditions: read-out: IC50 (ICRAC inhibition); cited from earlier work
[4] = tested on: vascular smooth muscle cells; conditions: cited from earlier work
[5] = tested on: T cell cytokine production; conditions: T cells; cited from earlier work
[6] = tested on: STIM1 clustering; conditions: vascular smooth muscle cells; cited from earlier work
[7] = tested on: metabotropic glutamate, muscarinic acetylcholine and GABA B receptors, GABA A, AMPA and NMDA receptors, tetrodotoxin-sensitive Na+ channels, N- and P/Q-type …; conditions: cited from earlier work
[8] = molecular target: endogenous TRPC1/5 (Homo sapiens, UniProt P48995+Q9UL62); conditions: cited from earlier work
[9] = molecular target: T1, overexpressed TRPC5 channels (Homo sapiens, UniProt Q9UL62); conditions: cited from earlier work
T1 sequence (Q9UL62 1-973): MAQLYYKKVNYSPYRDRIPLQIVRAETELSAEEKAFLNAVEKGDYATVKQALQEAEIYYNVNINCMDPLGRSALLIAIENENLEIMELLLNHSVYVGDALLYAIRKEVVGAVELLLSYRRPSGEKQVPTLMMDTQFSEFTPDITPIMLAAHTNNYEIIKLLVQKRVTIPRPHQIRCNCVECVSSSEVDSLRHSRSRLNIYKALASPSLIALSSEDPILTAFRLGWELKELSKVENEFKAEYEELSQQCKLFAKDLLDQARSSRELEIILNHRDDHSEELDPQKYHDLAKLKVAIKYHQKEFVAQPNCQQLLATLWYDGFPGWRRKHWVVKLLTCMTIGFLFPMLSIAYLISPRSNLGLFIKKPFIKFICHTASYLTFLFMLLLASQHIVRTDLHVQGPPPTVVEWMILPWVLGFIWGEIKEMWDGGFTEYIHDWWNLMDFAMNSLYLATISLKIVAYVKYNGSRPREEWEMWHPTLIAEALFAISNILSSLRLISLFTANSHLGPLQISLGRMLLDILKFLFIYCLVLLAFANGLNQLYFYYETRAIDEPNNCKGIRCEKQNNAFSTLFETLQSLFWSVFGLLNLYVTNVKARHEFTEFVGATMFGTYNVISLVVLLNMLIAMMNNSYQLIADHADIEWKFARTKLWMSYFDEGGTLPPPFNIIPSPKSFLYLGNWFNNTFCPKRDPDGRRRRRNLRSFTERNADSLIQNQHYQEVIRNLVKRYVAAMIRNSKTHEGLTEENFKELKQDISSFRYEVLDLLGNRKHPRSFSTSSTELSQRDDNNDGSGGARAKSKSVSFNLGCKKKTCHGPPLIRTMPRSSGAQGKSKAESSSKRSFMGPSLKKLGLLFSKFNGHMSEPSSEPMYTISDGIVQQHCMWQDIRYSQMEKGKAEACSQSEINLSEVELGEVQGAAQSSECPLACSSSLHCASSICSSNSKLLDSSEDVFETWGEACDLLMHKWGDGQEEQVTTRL

Sequence of ICRAC (Q96D31 whole entry): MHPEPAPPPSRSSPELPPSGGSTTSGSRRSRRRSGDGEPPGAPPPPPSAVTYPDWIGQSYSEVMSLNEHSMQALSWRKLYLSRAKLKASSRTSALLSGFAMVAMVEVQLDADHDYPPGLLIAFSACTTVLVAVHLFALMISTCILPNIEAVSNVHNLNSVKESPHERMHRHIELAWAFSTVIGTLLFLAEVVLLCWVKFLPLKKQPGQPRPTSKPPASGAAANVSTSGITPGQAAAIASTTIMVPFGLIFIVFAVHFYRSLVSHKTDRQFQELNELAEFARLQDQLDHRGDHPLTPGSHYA
Sequence of endogenous TRPC1/5 (P48995 whole entry, one chain of several): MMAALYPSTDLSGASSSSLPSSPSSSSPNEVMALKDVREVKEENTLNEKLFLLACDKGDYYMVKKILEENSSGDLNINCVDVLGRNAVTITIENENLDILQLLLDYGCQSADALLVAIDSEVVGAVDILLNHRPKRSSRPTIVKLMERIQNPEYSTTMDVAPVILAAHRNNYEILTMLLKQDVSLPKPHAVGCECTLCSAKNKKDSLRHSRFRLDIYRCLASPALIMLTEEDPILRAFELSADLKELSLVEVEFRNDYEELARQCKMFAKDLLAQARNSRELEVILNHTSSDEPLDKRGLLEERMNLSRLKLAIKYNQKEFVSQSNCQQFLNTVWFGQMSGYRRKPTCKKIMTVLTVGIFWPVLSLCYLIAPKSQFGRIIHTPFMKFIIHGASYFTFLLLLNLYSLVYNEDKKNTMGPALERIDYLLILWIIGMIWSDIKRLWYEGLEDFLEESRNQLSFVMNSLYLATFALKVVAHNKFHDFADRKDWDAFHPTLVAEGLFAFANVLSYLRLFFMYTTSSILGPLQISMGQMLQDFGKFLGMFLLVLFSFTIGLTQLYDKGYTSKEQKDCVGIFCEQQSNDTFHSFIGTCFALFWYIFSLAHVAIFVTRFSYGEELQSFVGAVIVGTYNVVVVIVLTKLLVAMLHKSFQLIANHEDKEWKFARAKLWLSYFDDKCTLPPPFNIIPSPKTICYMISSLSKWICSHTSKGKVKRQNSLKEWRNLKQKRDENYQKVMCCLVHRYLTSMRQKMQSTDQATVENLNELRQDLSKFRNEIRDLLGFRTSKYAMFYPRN

For `COc1ccc(OC)c(-c2ccc(NC(=O)c3ccncc3F)cc2)c1` [Synta66, 3-fluoropyridine-4-carboxylic acid (2′,5′-dimethoxybiphenyl-4-yl)amide], the “IC50 in inhibiting SOCE activity” value [1] is listed as “in the nanomolar range”, the residual cell viability [2] is listed as 76% and the IC50 [3] is listed as roughly 1000 nM. The IC50 [4] was roughly 30 nM, the “production of IFN-gamma, IL-2 and IL-17” value [5] was “inhibits the production” and the “production of IL-8” value [5] was “but not of IL-8”. For the same compound, the “interference with STIM1 clustering” value [6] was “does not interfere with STIM1 clustering”, the “effect on receptors and ion channels (mGlu, muscarinic, GABA B, GABA A, AMPA, NMDA, TTX-sensitive Na+, N- and P/Q-type Ca2+ channels)” value [7] was “does not affect” and the “inhibition of endogenous TRPC1/5” value [8] was “does not inhibit”. For the same compound, the “inhibition of overexpressed TRPC5 channels” value [9] was “does not inhibit”.
